Laboratory results taken from US20260207450A1, “ANTI-DANDRUFF COMPOSITIONS” (Firmenich SA, priority 2022, published 2026).
Values after ≈ are worked out from the molar mass of the structure shown.

Columns and labels:
[1] = test system: Malassezia furfur DSM 6170; test: MIC assay on Malassezia furfur DSM 6170 (resazurin); format: cell-based; settings: 30° C., 48 h aerobically, dilutions 29 to 10000 ppm; for MIC: Malassezia furfur, DSM6170
Experimental: The MIC assay for Malassezia furfur DSM 6170 was modified based on the method in Journal of Clinical Microbiology 2017, Vol 55: 1883-1893. In brief, working culture was prepared from stock cultures stored at −80° C. to obtain a cell suspension as the inoculum. Serial dilutions of samples, 29 to 10000 ppm, were tested to determine the MIC values for growth of Malassezia furfur DSM 6170 after at 30° C. for 48 h aerobically. Resazurin was used as growth indicator.
(§1) A total of 26 perfumery materials were examined for an inhibition effect on Malassezia furfur and Staphylococcus aureus.

M. furfur DSM 6170 [2] = test: Disc-diffusion assay, perfumery materials in DMSO, M. furfur; format: cell-based, Malassezia furfur; settings: for zone of inhibition at 2 %: Malassezia furfur, DSM6170, 72 h
Experimental: (§2) Anti-Malassezia effect of perfumery materials in solvent in DMSO was determined using disc-diffusion assay, based on the method of J Mycol Infect 2018: 23: 91-98. In brief, working cultures of Malassezia strains were prepared from −80 C stock culture on mDixon agar plate (for M. furfur DSM 6170) or mLN agar plate (for M. restricta ATCC MYA-4611 and M. globosa ATCC MYA-4612), and cells were suspended in 0.9% saline, and spread onto mDixon or mLN agar surface to prepare lawn plate. Test samples solutions are prepared in DMSO to final concentrations of 0.2%, 1% or 2%. Discs (Whatman, 6 mm in diameter) were placed on inoculated agar plates with each Malassezia strains respectively, including M. furfur DSM 6170, M. restricta ATCC MYA-4611, and M. globosa ATCC MYA-4612. Aliquots (20 μL) of each sample solution was added to each disc. Agar plates were incubated at 30° C. for 3 days for M. furfur DSM 6170, and 6 days for M. restricta ATCC MYA-4611, and M. globosa ATCC MYA-4612. After incubation, diameters of the clear inhibition zones around the discs were measured. Inhibition zone greater than 6 mm are regarded as having anti-Malassezia effect.

M. globosa ATCC MYA-4612 [3] = test: Disc-diffusion assay, perfumery materials in DMSO, M. globosa; format: cell-based, Malassezia globosa; settings: for zone of inhibition at 1 % / zone of inhibition at 2 % / zone of inhibition at 0.2 %: Malassezia globosa, 144 h; for Inhibition zone (mm) M. globosa: 20 μL on 6 mm disc, 6 days, NI means no inhibition zone
Experimental: as §2

[4] = test system: Staphylococcus aureus ATCC 6538; test: MIC assay on Staphylococcus aureus ATCC 6538; format: cell-based; settings: TSB, 37° C., 24 h aerobically, dilutions 29 to 10000 ppm; for MIC: Staphylococcus aureus, ATCC6538, read-out: MIC (ppm) S. aureus
Experimental: MIC assay for Staphylococcus aureus ATCC 6538 is based on Clinical Laboratory Standard Institute: CLSI/NCCLS M07-A8. Cell suspension of working cultures of S. aureus was prepared following the instructions of culture provider ATCC, USA.
as §1

[5] = test system: M. restricta ATCC MYA-4611; test: Disc-diffusion assay, perfumery materials in DMSO, M. restricta; format: cell-based, Malassezia restricta; settings: for zone of inhibition at 0.2 % / zone of inhibition at 1 % / zone of inhibition at 2 %: Malassezia restricta, 144 h; for Inhibition zone (mm) M. restricta: 20 μL on 6 mm disc, 6 days, NI means no inhibition zone
Experimental: as §2

M. restricta = test: Disc-diffusion assay, combinations with piroctone olamine (PO) in DMSO, M. restricta; format: cell-based, Malassezia restricta; settings: 4 days, ratio greater than 1.0 = boosting effect
Experimental: Anti-Malassezia effect of combinations of PO and perfumery materials in solvent DMSO against M. restricta was determined using disc-diffusion assay as described above. Aliquots (20 μL) of each sample solution was added to each disc. Agar plates were incubated at 30° C. for 4 days. After incubation, diameters of the clear inhibition zones around the discs were measured. Ratio of inhibition zone diameter of each combination to that of PO only were calculated. […] Anti-Malassezia effect of combinations of PO and perfumery raw materials mixtures in solvent DMSO was determined using disc-diffusion assay, as described above. Aliquots (20 μL) of each sample solution was added to each disc. Agar plates were incubated at 30° C. for 4 days. After incubation, diameters of the clear inhibition zones around the discs were measured. Ratio of inhibition zone diameter of each combination to that of PO only were calculated.

M. furfur DSM 6170 [6] = test: Disc-diffusion assay, (2E,6Z)-2,6-nonadienal with anti-dandruff actives in DMSO, M. furfur; format: cell-based, Malassezia furfur; settings: 3 days
Experimental: The anti-Malassezia effect of perfumery materials in combination of anti-dandruff actives using the disk-diffusion assay, modified based on the method of J Mycol Infect 2018; 23: 91-98. working culture of M. furfur DSM 6170 was prepared from −80 C stock culture on mDixon agar plate, and cells were suspended in 0.9% saline, and spread onto mDixon agar surface to prepare lawn plates. Discs (Whatman, 6 mm in diameter) were placed on inoculated mDixon agar plates. Test sample solutions are prepared in DMSO. Aliquots (20 μL) of each sample solution was added to each disc. Agar plates were incubated at 30° C. for 3 days. After incubation, diameters of the clear inhibition zones around the discs were measured.

[7] = test system: M. restricta ATCC MYA-4611; test: Disc-diffusion assay, perfumery materials in Shampoo Base B, M. restricta; format: cell-based, Malassezia restricta; settings: 0.25% perfumery material in 25% Shampoo Base B solution, 6 mm disc, 6 days
Text: (§3) The present inventors sought to investigate how whether the anti-dandruff effect of compounds and compositions could be used in shampoo formulations. For this reason, they prepared two shampoo bases. Shampoo Base A is a composition with Sodium Laureth Sulfate and cocamidopropyl betaine as the primary ingredients, while Shampoo Base B is a composition with Ammonium Lauryl Sulfate and Ammonium Laureth Sulfate as primary ingredients. Anti-Malassezia effect of perfumery materials in shampoo was determined using disc-diffusion assay, based on the method of J Mycol Infect 2018; 23: 91-98. […] Aliquots (20 μL) of each sample solution was added to each disc. Agar plates were incubated at 30° C. for 6 days. After incubation, diameters of the clear inhibition zones around the discs were measured.

M. globosa ATCC MYA-4612 [8] = test: Disc-diffusion assay, perfumery materials in Shampoo Base B, M. globosa; format: cell-based, Malassezia globosa; settings: 0.25% perfumery material in 25% Shampoo Base B solution, 6 mm disc, 6 days
Text: as §3

[9] = test system: M. restricta ATCC MYA-4611; test: Cylinder diffusion assay, hair conditioner base with 0.35% PO and mixtures, M. restricta; format: cell-based, Malassezia restricta; settings: conditioner containing 0.35% PO without mixture; 25% conditioner solution, 80 μL cylinder, 4 days
Experimental: A hair conditioner base was prepared. The main components included water, cetyl alcohol, MIRASIL® ADME-NP (water (and) amodimethicone (and) trideceth-6), stearyl alcohol, behentrimonium methosulfate (and) Isopropanol.
Anti-Malassezia effect of hair conditioners was determined using cylinder diffusion assay that was used for testing shampoos, as described above. In brief, working cultures of M. restricta ATCC MYA-4611 and inoculated as described in disc diffusion assay. Cylinders were placed on inoculated agar plates. Aliquots (80 μL) of each sample (25% conditioner solution) were added to each cylinder. Agar plates were incubated at 30° C. for 4 days. After incubation, diameters of the clear inhibition zones around the discs were measured.

| Compound | MIC [1] | zone of inhibition at 2 % (M. furfur DSM 6170 [2]) | zone of inhibition at 1 % (M. globosa ATCC MYA-4612 [3]) | zone of inhibition at 2 % (M. globosa ATCC MYA-4612 [3]) | MIC [4] | zone of inhibition at 0.2 % [5] | zone of inhibition at 1 % [5] | zone of inhibition at 2 % [5] | Ratio of inhibition zone diameter (0.5% PRM + 0.1% PO) to 0.1% PO (M. restricta) | Inhibition zone (mm) M. restricta [7] | Inhibition zone (mm) M. globosa (M. globosa ATCC MYA-4612 [8]) | further results |
| --- | --- | --- | --- | --- | --- | --- | --- | --- | --- | --- | --- | --- |
| O=C/C=C/c1ccccc1 [cinnamaldehyde, (E)-3-phenyl-2-propenal] | 99 µg/mL (≈ 749 µM) | 16.5 mm | 17.6 mm | 27.4 mm | 293 µg/mL (≈ 2220 µM) | 8.4 mm | 34.5 mm | 33.3 mm | 3.4 | – | – | Ratio of inhibition zone diameter (0.2% PRM + 0.1% PO) to 0.1% PO (M. restricta): 1.4; Ratio of inhibition zone diameter (0.2% PRM + 0.35% PO) to 0.35% PO (M. restricta): 1.3 |
| CC(=O)N1CCN(c2ccc(OCC3COC(Cn4ccnc4)(c4ccc(Cl)cc4Cl)O3)cc2)CC1 (centres unmarked) [ketoconazole] | – | – | – | – | – | – | – | – | – | – | – | Inhibition zone (mm) on M. furfur (M. furfur DSM 6170 [6]; Table 7, 0.1% in DMSO): 22.3 mm; Inhibition zone (mm) on M. furfur (M. furfur DSM 6170 [6]; Table 7, 0.2% in DMSO): 24.6 mm; Inhibition zone (mm) on M. furfur (M. furfur DSM 6170 [6]; Table 7, 0.3% in DMSO): 24.5 mm; Inhibition zone (mm) on M. furfur (M. furfur DSM 6170 [6]; Table 7, 0.4% in DMSO): 24.9 mm |
| C/C(=C\c1ccc(C)cc1)CCC=O [(4E)-4-methyl-5-(4-methylphenyl)-4-pentenal] | 333 µg/mL (≈ 1770 µM) | 7.5 mm | 9 mm | 10.5 mm | 75 µg/mL (≈ 398 µM) | 6.8 mm | 11.6 mm | 12 mm | 1.2 | – | – | – |
| C=CCc1ccc(O)c(OC)c1 [2-methoxy-4-(2-propen-1-yl)phenol] | – | – | – | – | – | – | – | – | – | 7.3 mm | 8.2 mm | – |
| Cc1cc(CC(C)CC(C)(C)C)n(O)c(=O)c1.NCCO (centres unmarked) [Piroctone Olamine (PO), Piroctone Olamine] | – | – | – | – | – | – | – | – | – | – | – | Inhibition zone diameter (mm) against M. restricta [9]: No inhibition zone; Inhibition zone (mm) on M. furfur (M. furfur DSM 6170 [6]; Table 5, 0.19% in DMSO, 6 mm disc): 11.8 mm |
| CCCc1cccc(O)c1 [3-propylphenol] | – | – | – | – | – | – | – | – | – | 7.7 mm | 10.2 mm | – |
| CCCCCCCCC/C=C/C=O [(2E)-2-dodecenal] | 148 µg/mL (≈ 812 µM) | 12.6 mm | 15.2 mm | 17.9 mm | 49 µg/mL (≈ 269 µM) | 10 mm | 14.4 mm | 18.1 mm | 2.1 | – | – | Ratio of inhibition zone diameter (1% PRM + 0.35% PO) to 0.35% PO (M. restricta): 1.2 |
| CC/C=C\CC/C=C/C=O [(2E,6Z)-2,6-nonadienal] | 44 µg/mL (≈ 318 µM) | 13.5 mm | > 40 mm | – | 233 µg/mL (≈ 1690 µM) | 7.7 mm | > 40 mm | > 40 mm | 3.4 | 11.1 mm | 12.8 mm | Inhibition zone (mm) on M. furfur (M. furfur DSM 6170 [6]; Table 5, 0.75% in DMSO, 6 mm disc): 7.6 mm; Inhibition zone (mm) on M. furfur (M. furfur DSM 6170 [6]; Table 6, 1% in DMSO): 11.4 mm; Inhibition zone (mm) on M. furfur (M. furfur DSM 6170 [6]; Table 7, 1% in DMSO): 14.1 mm; zone of inhibition at 0.2 % (M. globosa ATCC MYA-4612 [3]): 12.4 mm; Ratio of inhibition zone diameter (0.2% PRM + 0.1% PO) to 0.1% PO (M. restricta): 1.2 |
| cyclopropylmethyl (3Z)-3-hexenoate + cyclopropylmethyl (3E)-3-hexenoate | – | – | – | – | – | – | – | – | – | – | – | MIC (ppm) M. furfur [1]: 333 ppm; Inhibition zone (mm) M. furfur (M. furfur DSM 6170 [2]; 2% in DMSO, 20 μL on 6 mm disc, 3 days, NI means no inhibition zone): 8.0 mm; Inhibition zone (mm) M. globosa (M. globosa ATCC MYA-4612 [3]; 0.2% in DMSO): 8.7 mm; Inhibition zone (mm) M. globosa (M. globosa ATCC MYA-4612 [3]; 2% in DMSO): 13.0 mm; MIC (ppm) S. aureus [4]: 625 ppm; Inhibition zone (mm) M. restricta ([5]; 0.2% in DMSO): 6.3 mm; Inhibition zone (mm) M. restricta ([5]; 2% in DMSO): 11.0 mm |
| CC(C)=CCC/C(C)=C/C=O [citral, (Z)-3,7-dimethyl-2,6-octadienal+(E)-3,7-dimethyl-2,6-octadienal] | 222 µg/mL (≈ 1460 µM) | 8.6 mm | – | 8.7 mm | 450 µg/mL (≈ 2960 µM) | 6.2 mm | 7.1 mm | > 40 mm | – | – | – | zone of inhibition at 0.2 % (M. globosa ATCC MYA-4612 [3]): 6.2 mm; Ratio of inhibition zone diameter (1% PRM + 0.35% PO) to 0.35% PO (M. restricta): 1.1 |
